Data: ChEMBL document CHEMBL5550180, “Enhancing anti-cancer capacity: Novel class I/II HDAC inhibitors modulate EMT, cell cycle, and apoptosis pathways” (Bioorg Med Chem, 2024)
The source made the active and inactive calls. The calls are words filed in the database; no cut-off is given here.

Key:
[1] = system: A549; assay: Inhibition of cell migration in human A549 cells at 2.5 uM measured at 24 hrs by wound healing assay (reference value: 68.4%); values are per cent of control; conditions: A549, 24 h
[2] = system: A549; assay: Anticancer activity against human A549 cells cultured as 3D spheroids assessed as suppression of cell growth at 10 uM incubated for 48 hrs by celltiter-glo luminescent assay; assay type: functional, cell-based
[3] = system: A549; assay: Induction of apoptosis in human A549 cells assessed as upregulation of p53 expression at 5 to 10 uM incubated for 48 hrs by Western blot analysis; assay type: functional, cell-based; conditions: dose 5-10 µM
[4] = system: A549; assay: Inhibition of cell migration in human A549 cells at 2.5 uM measured at 48 hrs by wound healing assay (reference value: 42.3%); values are per cent of control; conditions: A549, 48 h
[5] = system: A549; assay: Induction of apoptosis in human A549 cells assessed as increase in PARP level at 5 to 10 uM incubated for 48 hrs by Western blot analysis; assay type: functional, cell-based; conditions: dose 5-10 µM
[6] = Toxicity in zebrafish embryo assessed as survival rate at 1 to 5 uM measured after 72 hrs post fertilization; set-up: species or system Danio rerio; conditions: in vivo, dose 1-5 µM
[7] = system: HT-29; assay: Inhibition of cell migration in human HT-29 cells at 1.25 uM measured immediately by wound healing assay (reference value: 100%); values are per cent of control
[8] = system: HT-29; assay: Inhibition of cell migration in human HT-29 cells at 1.25 uM measured at 48 hrs by wound healing assay (reference value: 73.2%); assay type: functional
[9] = system: NCI-H1299; assay: Anticancer activity against human NCI-H1299 cells assessed as reduction in cell viability at 10 to 40 uM incubated for 48 hrs by MTT assay; assay type: functional, cell-based; conditions: dose 10-40 µM
[10] = Toxicity in zebrafish embryo assessed as hatching rate at 1 to 5 uM measured after 72 hrs post fertilization by microscopic analysis; set-up: species or system Danio rerio; conditions: in vivo, dose 1-5 µM
[11] = Toxicity in zebrafish embryo assessed as formation of scoliosis at 1 to 5 uM measured after 96 hrs post fertilization by microscopic analysis; set-up: species or system Danio rerio; conditions: in vivo, dose 1-5 µM
[12] = system: HT-29; assay: cells; assay type: functional, cell-based; conditions: Homo sapiens, HT-29, 48 h
Description: Anticancer activity against human HT-29 cells assessed as inhibition of cell growth measured for 48 hrs by MTT assay

[13] = system: A549; assay: Induction of cell cycle arrest in human A549 cells assessed as effect on cyclin B1 level at 5 to 10 uM incubated for 48 hrs by Western blot analysis; assay type: functional, cell-based; conditions: dose 5-10 µM
[14] = system: A549; assay: Induction of cell cycle arrest in human A549 cells assessed as effect on p21 level at 5 to 10 uM incubated for 48 hrs by Western blot analysis; assay type: functional, cell-based; conditions: dose 5-10 µM
[15] = system: A549; assay: Induction of cell cycle arrest in human A549 cells assessed as accumulation at sub G1 at 5 to 10 uM incubated for 24 to 48 hrs by PI-staining based flow cytometric analysis; assay type: functional; conditions: dose 5-10 µM, time 24-48 hrs
[16] = system: A549; assay: Inhibition of cell migration in human A549 cells at 2.5 uM measured immediately by wound healing assay (reference value: 100%); values are per cent of control
[17] = system: HT-29; assay: Anticancer activity against human HT-29 cells cultured as 3D spheroids assessed as suppression of cell growth at 10 uM incubated for 48 hrs by celltiter-glo luminescent assay; assay type: functional, cell-based
[18] = system: A549; assay: Induction of apoptosis in human A549 cells assessed as increase in caspase 3 level at 5 to 10 uM incubated for 48 hrs by Western blot analysis; assay type: functional, cell-based; conditions: dose 5-10 µM
[19] = target: T1, Histone deacetylase (Homo sapiens) (UniProt Q13547+O15379+Q9UBN7+Q92769+Q9UQL6+Q8WUI4+Q9BY41+Q96DB2+P56524+Q9UKV0+Q969S8); assay: Inhibition of HDAC in human HT-29 cells incubated for 48 hrs by Western blot analysis; assay type: cell-based; conditions: dose 0.1-10 µM
[20] = target: T1, Histone deacetylase (Homo sapiens); assay: Inhibition of HDAC in human A549 cells incubated for 48 hrs by Western blot analysis; assay type: cell-based; conditions: dose 0.1-10 µM
[21] = system: A549; assay: Anticancer activity against human A549 cells assessed as suppression of cell viability at 10 uM incubated for 48 hrs by MTT assay; assay type: functional, cell-based
[22] = system: HT-29; assay: Inhibition of cell migration in human HT-29 cells assessed as downregulation of vimentin level at 2.5 to 5 uM incubated for 48 hrs by Western blot analysis; assay type: functional, cell-based; conditions: dose 2.5-5 µM
[23] = system: A549; assay: Anticancer activity against human A549 cells assessed as viable cells by measuring green fluorescence intensity measured for 48 hrs by Calcein AM staining based fluorescent microscopic analysis; assay type: functional, cell-based; conditions: dose 1-20 µM
[24] = system: HT-29; assay: Anticancer activity against human HT-29 cells assessed as suppression of cell viability at 10 uM incubated for 48 hrs by MTT assay; assay type: functional, cell-based
[25] = system: HT-29; assay: Inhibition of cell migration in human HT-29 cells assessed as upregulation of E-cadherin level at 2.5 to 5 uM incubated for 48 hrs by Western blot analysis; assay type: functional, cell-based; conditions: dose 2.5-5 µM
[26] = system: A549; assay: Inhibition of colony formation in human A549 cells at 250 to 500 nM measured for 10 days by crystal violet staining based analysis; assay type: functional, cell-based; conditions: dose 250-500 nM, time 10.0 day
[27] = system: HT-29; assay: Anticancer activity against human HT-29 cells assessed as viable cells by measuring green fluorescence intensity measured for 48 hrs by Calcein AM staining based fluorescent microscopic analysis; assay type: functional, cell-based; conditions: dose 1-20 µM
[28] = Toxicity in zebrafish embryo assessed as effect on body length at 1 to 5 uM measured after 96 hrs post fertilization by microscopic analysis; set-up: species or system Danio rerio; conditions: in vivo, dose 1-5 µM
[29] = system: HT-29; assay: Inhibition of cell migration in human HT-29 cells at 1.25 uM measured at 24 hrs by wound healing assay (reference value: 85.7%); values are per cent of control; conditions: HT-29, 24 h
[30] = system: HT-29; assay: Inhibition of cell migration in human HT-29 cells assessed as downregulation of slug level at 2.5 to 5 uM incubated for 48 hrs by Western blot analysis; assay type: functional, cell-based; conditions: dose 2.5-5 µM
[31] = system: HT-29; assay: Inhibition of colony formation in human HT-29 cells at 125 to 250 nM measured for 10 days by crystal violet staining based analysis; assay type: functional, cell-based; conditions: dose 125-250 nM, time 10.0 day
[32] = Toxicity in zebrafish embryo assessed as yolk sac edema at 1 to 5 uM measured after 96 hrs post fertilization by microscopic analysis; set-up: species or system Danio rerio; conditions: in vivo, dose 1-5 µM
[33] = target: T1, Histone deacetylase (Homo sapiens); assay: Inhibition of HDAC in human HT-29 cells assessed as increase in acetyl alpha-tubulin level at 2.5 to 5 uM incubated for 48 hrs by Western blot analysis; assay type: cell-based; conditions: dose 2.5-5 µM
[34] = system: A549; assay: cells; assay type: functional, cell-based; conditions: Homo sapiens, A549, 48 h
Description: Anticancer activity against human A549 cells assessed as inhibition of cell growth measured for 48 hrs by MTT assay

[35] = target: T1, Histone deacetylase (Homo sapiens); assay: Inhibition of HDAC in human HT-29 cells assessed as increase in histone acetylation level at 2.5 to 5 uM incubated for 48 hrs by Western blot analysis; assay type: cell-based; conditions: dose 2.5-5 µM

In the case of Nc1ccccc1NC(=O)c1ccc(Cc2cn(S(=O)(=O)c3ccccc3)c3ccccc23)cc1, the wound area remaining at 2.5 µM [1] is reported as 75.8%, the Activity [2] is reported as “Active” and the Activity [3] is reported as “Active”. The wound area remaining at 2.5 µM [4] was 53.6%, the Activity [5] was “Active” and the survival at 72 h, up to 5 µM [6] was about 100%. For the same compound, the wound area remaining at 1.25 µM [7] was 100%, the inhibition at 1.25 µM [8] was 82.1% and the Activity [9] was “Active”. The Activity [10] was 100%, the Activity [11] was “Non-Toxic” and the IC50 [12] was 1.92 µM. For the same compound, the Activity [13] was “Active”, the Activity [14] was “Active” and the Activity [15] was “Active”. The wound area remaining at 2.5 µM [16] was 100%, the Activity [17] was “Active” and the Activity [18] was “Active”. For the same compound, the inhibition [19] was “Active”, the inhibition [20] was “Active” and the Activity [21] was “Active”. For the same compound, the inhibition [22] was “Active”, the Activity [23] was “Dose-Dependent Effect” and the Activity [24] was “Active”. For the same compound, the inhibition [25] was “Active”, the inhibition [26] was “Active” and the Activity [27] was “Dose-Dependent Effect”. For the same compound, the Activity [28] was “Non-Toxic”, the wound area remaining at 1.25 µM [29] was 89.6% and the inhibition [30] was “Active”. The inhibition [31] was “Active”, the Activity [32] was “Non-Toxic” and the inhibition [33] was “Active”. The IC50 [34] was 4.86 µM and the inhibition [35] was “Active”.
